Measurements from patent publication US20230189806A1, “FUNGICIDAL COMBINATIONS” (UPL Corporation Limited, priority 2021, published 2023).

Legend:
S. sclerotiorum = test: Paper towel roll method, incidence of S. sclerotiorum in inoculated soybean seeds; format: in vivo, Sclerotinia sclerotiorum; conditions: % control of S. sclerotiorum, 14 days at 25° C.
Method: Colby Calculation: This effectiveness of all treatments as measured by percent reduction in the target phytopathogen growth, was also evaluated according to Colby's equation as below. E=X+Y−XY/100 Colby's equation If the actual/observed anti-phytopathogenic efficacy of the ipconazole and thiabendazole combination against S. sclerotiorum exceeds the calculated value, then the activity of the combination is super additive, i.e., a synergistic effect exists. In this case, the efficacy which was actually observed must be greater than the value for the expected efficacy (E) calculated from the abovementioned formula. Methodology: To evaluate the incidence of the pathogen S. sclerotiorum in soybean seeds, the laboratory paper towel roll method was used. A paper towel on a flat surface was placed and moistened with water until it was thoroughly damp. A sample size of a total of 100 soybean seeds in rows were placed on the towel. The seeds were inoculated with the fungal pathogen. The seeds were pre-treated as per the treatments mentioned in the Table 5. A second towel was moistened and placed onto the first paper towel, leaving the seeds sandwiched between the two towels. It was observed that air space in between the two towels was maintained, if not, excessive water should be removed. The two towels were rolled with the seeds in-between and place in a sealed container that retained the moisture. The paper rolls were placed upright and incubated for 14 days in an incubator at 25° C. and at a 12 h photoperiod in plastic bags, which is used to maintain humidity during the incubation. For each treatment, 400 seeds were analyzed, 8 repetitions with 50 seeds each repetition.

Rhizoctonia solani = test: Seed treatment bio-efficacy against Rhizoctonia solani in inoculated soybean seeds; format: in vivo; conditions: % control of Rhizoctonia solani
Method: This effectiveness of all treatments as measured by percent reduction in the target phytopathogen growth, was also evaluated according to Colby's equation as below. E=X+Y−XY/100 Colby's equation If the actual/observed anti-phytopathogenic efficacy of the ipconazole and thiabendazole combination against Rhizoctonia solani growth exceeds the calculated value, then the activity of the combination is super additive, i.e., a synergistic effect exists. In this case, the efficacy which was actually observed must be greater than the value for the expected efficacy (E) calculated from the abovementioned formula. Methodology: Experiments were carried out to evaluate the bio-efficacy of combinations according to the invention of the present disclosure consisting of ipconazole and thiabendazole against Rhizoctonia solani fungi in soybean seeds. The seeds were inoculated with Rhizoctonia solani. The fungicides were tank mixed and applied as seed treatment as described in table 4 below. Spraying volume was 5 ml/kg.

Compound	Observed efficacy of demethylation inhibitor fungicide (%) (S. sclerotiorum; ipconazole 5.6 g a.i./100 kg seed)	Observed efficacy of demethylation inhibitor fungicide (%) (S. sclerotiorum; ipconazole 7.78 g a.i./100 kg seed)	Observed efficacy of demethylation inhibitor fungicide (%) (Rhizoctonia solani; ipconazole 2 g a.i./100 kg seed)	Observed efficacy of demethylation inhibitor fungicide (%) (Rhizoctonia solani; ipconazole 3 g a.i./100 kg seed)	Observed efficacy of β-tubulin assembly inhibitor fungicide (%) (S. sclerotiorum; thiabendazole 30.9 g a.i./100 kg seed)	Observed efficacy of β-tubulin assembly inhibitor fungicide (%) (S. sclerotiorum; thiabendazole 61.9 g a.i./100 kg seed)	Observed efficacy of β-tubulin assembly inhibitor fungicide (%) (Rhizoctonia solani; thiabendazole 12 g a.i./100 kg seeds)	Observed efficacy of β-tubulin assembly inhibitor fungicide (%) (Rhizoctonia solani; thiabendazole 18 g a.i./100 kg seeds)
CC(C)C1CCC(Cc2ccc(Cl)cc2)C1(O)Cn1cncn1 (centres unmarked) [Ipconazole]	21.3	6.7	49.05	67.92	–	–	–	–
c1ccc2[nH]c(-c3cscn3)nc2c1 [Thiabendazole]	–	–	–	–	14.6	67.4	43.39	56.60
